Here are results for seven compounds from publication PMC12670405, “Second-Generation AURKA-Targeting PROTACs: Structural Optimization toward in Vivo Degradation in Neuroblastoma” (Journal of Medicinal Chemistry, 2025).

Values joined by “and” are separate entries in the source; they are usually repeats but may differ in a detail not shown here. Equal values may be shown once. Read-outs that look alike come from different tables or passages of the source.

Test [1] relates to NGP. Description: IncuCyte live-cell imaging, antiproliferative effect. Type of test: cell-based. The conditions noted are these: Homo sapiens, 72 h. The gist of the method: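 Cells seeded in 384-well plates (neuroblastoma 1200–5000, HEK293T 600 cells/well), adhered overnight, then compound-treated in duplicate or triplicate; confluency tracked by IncuCyte live-cell imaging. Normalized confluence averaged from 3 experiments; absolute GI50 interpolated from four-parameter variable-slope curves.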

The target in test [2] is T1, AURKA (Homo sapiens, UniProt O14965).
T1 sequence (O14965 1-403): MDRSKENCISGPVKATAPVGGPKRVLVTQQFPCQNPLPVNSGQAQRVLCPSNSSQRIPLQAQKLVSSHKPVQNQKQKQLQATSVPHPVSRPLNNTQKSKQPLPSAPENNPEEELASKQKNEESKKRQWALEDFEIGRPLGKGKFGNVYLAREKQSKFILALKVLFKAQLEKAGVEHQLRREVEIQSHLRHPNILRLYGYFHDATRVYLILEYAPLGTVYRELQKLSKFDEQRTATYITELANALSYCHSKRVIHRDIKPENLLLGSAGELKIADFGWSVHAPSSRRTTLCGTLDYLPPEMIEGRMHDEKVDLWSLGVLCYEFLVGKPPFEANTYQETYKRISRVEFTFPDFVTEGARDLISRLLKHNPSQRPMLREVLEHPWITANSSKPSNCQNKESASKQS
The test can be described thus: AURKA degradation, Simple Western.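 For AURKA Degradation 24h @1000nM: measured in NGP neuroblastoma cells.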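 For AURKA Degradation 24h @100nM: measured in NGP neuroblastoma cells.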 Type of test: cell-based. The arrangement: Representative Western blot showing levels of endogenous proteins MDR1, MYCN, AURKA, and CRBN in untreated cell lines; endogenous in cells; host or cells: NGP, IMR-32, SJNB-8, SK-N-BE(2)-C, SK-N-SH, SK-N-AS, SJNB-1, RPE, HEK293T. Conditions: for pDC50: AURKA degradation; for time to robust AURKA depletion: IMR-32, 500 nM; for AURKA degradation potency upon cotreatment with tariquidar (in words): 100 nM, 1 μM tariquidar; for AURKA Degradation 24h @100nM / AURKA Degradation 24h @1000nM / AURKA degradation potency upon cotreatment with tariquidar (in words): 24h. The gist of the method: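 Cells treated with compound in medium; lysed in RIPA and analysed by Simple Western (0.8 μg/μL lysate, 0.2 μg/μL for MYCN). Peak areas were normalized to vinculin, giving fold change versus DMSO (mean of 3 experiments); DC50 interpolated from four-parameter dose–response curves.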

Test [3] addresses T2, AURKB (Homo sapiens, UniProt Q96GD4).
T2 construct: purchased Eurofins Discovery
Description: AURKB binding assay (KINOMEscan / KdELECT, Eurofins Discovery). As to the method: AURKA, AURKB and CRBN binding assays were performed by Eurofins Discovery using the KdELECT Kinase Assay Panel (AURKA and AURKB), or the E3scan Ligand Binding Assay Technology (CRBN). More information can be found on the Eurofins Discovery Web site.
Graphs were generated using GraphPad Prism Software (version 10.1.2) or RStudio (R-4.3.2). All dose–response curves were computed on GraphPad Prism using the Variable Slope (four parameters) equation. Absolute half-maximal degradation (DC50), growth inhibitory (GI50) and enzymatic inhibitory (IC50) concentrations, as well as inhibition constants (Ki) were derived from dose–response curves via interpolation. Statistical tests were performed on GraphPad Prism and detailed in the figure legends. Unless otherwise stated, “n” in the figure legends indicates the number of independent experiments conducted at different times.

[4] abbreviates: NGP, 24 h treatment, read-out: AURKA DC50.
Where [5] appears, read: SK-N-BE(2)-C, read-out: AURKA DC50 24h.

T2 sequence (Q96GD4 whole entry): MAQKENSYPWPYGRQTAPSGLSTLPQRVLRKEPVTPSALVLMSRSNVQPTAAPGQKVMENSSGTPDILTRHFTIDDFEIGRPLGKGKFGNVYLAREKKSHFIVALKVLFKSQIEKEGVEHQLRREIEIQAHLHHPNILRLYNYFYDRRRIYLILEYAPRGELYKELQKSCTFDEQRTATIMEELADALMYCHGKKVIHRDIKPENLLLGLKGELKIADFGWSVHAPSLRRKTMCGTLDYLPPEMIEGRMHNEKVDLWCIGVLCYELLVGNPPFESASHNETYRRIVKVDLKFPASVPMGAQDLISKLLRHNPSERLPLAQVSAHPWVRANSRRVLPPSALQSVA

For `O=C1CCC(Nc2ccc(N3CCN(C4CN(C(=O)[C@]5(Cc6cccc(Nc7nccs7)n6)CC[C@@H](Oc6cccc(Cl)c6F)CC5)C4)CC3)c(F)c2)C(=O)N1` (stereo partly shown) [PROTAC 18], in test [1] (read-out: GI50 72h, 72h), the GI50 was determined as 17 nM. Further, in test [1] (read-out: pGI50 (converted)), the GI50 is 17 nM. Besides, in test [2], the “AURKA Degradation 24h @100nM” value was determined as 88, the “AURKA Degradation 24h @1000nM” value came out at 92 and the pDC50 was 8,2. Further, the Dmax (usually the largest share of the target that was removed) in test [2] (NGP, 24 h treatment) was found to be 92%. Besides, the 50% degradation concentration (DC50) (usually the midpoint of the concentration-degradation curve) in test [2] (setting [4]) was 6 nM. The 50% degradation concentration (DC50) in test [2] (read-out: AURKA DC50) was found to be 6.4 nM.

Regarding `O=C1CCN(c2ccc(N3CCN(CC4CN(C(=O)[C@]5(Cc6cccc(Nc7nccs7)n6)CC[C@@H](Oc6cccc(Cl)c6F)CC5)C4)CC3)nc2)C(=O)N1` [PROTAC 23], the GI50 in test [1] (read-out: GI50 72h, 72h) came out at 24 nM. Further, in test [1] (read-out: pGI50 (converted)), the GI50 was 23.4 nM. In test [2], the “AURKA Degradation 24h @100nM” value stood at 88, the “AURKA Degradation 24h @1000nM” value is listed as 88 and the pDC50 is given as 8,4. Also, in test [2] (NGP, 24 h treatment), the “AURKA degradation activity (in words)” value was “restored degradation activity” and the Dmax turned out to be 90%. Moreover, in test [2] (read-out: AURKA DC50), the 50% degradation concentration (DC50) was 4 nM.

`O=C1CCN(c2ccc(N3CCN(CC4CCN(C(=O)[C@]5(Cc6cccc(Nc7nccs7)n6)CC[C@@H](Oc6cccc(Cl)c6F)CC5)CC4)CC3)nc2)C(=O)N1` [PROTAC 24]: in test [1] (read-out: GI50 72h, 72h), the GI50 was determined as 28 nM. In addition, the GI50 in test [1] (read-out: pGI50 (converted)) was 27.5 nM. The inhibitory constant (Ki) (commonly a dissociation constant, usually derived from enzyme kinetics or from competition with a known ligand) in test [3] turned out to be 2.39 µM. Also, in test [2], the “AURKA Degradation 24h @100nM” value was 88, the “AURKA Degradation 24h @1000nM” value was determined as 93 and the pDC50 is 8,23. For the same compound, in test [2] (NGP, 24 h treatment), the “AURKA degradation activity (in words)” value is listed as “restored degradation activity” and the Dmax was 94%. Besides, the DC50 in test [2] (read-out: AURKA DC50) stood at 5.8 nM.

On to `Cc1cc(Nc2ccc(F)c(CC3(C(=O)N4CC(N5CCN(c6ccc(NC7CCC(=O)NC7=O)cc6F)CC5)C4)CCN(Cc4cccc(Cl)c4F)CC3)n2)n[nH]1` (stereo not shown) [PROTAC 29], for which, in test [1] (read-out: GI50 72h, 72h), the GI50 was 36 nM. In addition, the GI50 in test [1] (read-out: pGI50 (converted)) was 36.3 nM. Further, in test [2], the “AURKA Degradation 24h @100nM” value is 78, the “AURKA Degradation 24h @1000nM” value is 84 and the pDC50 was 8,11. Further, in test [2] (NGP, 24 h treatment), the “AURKA DC50” value is recorded as “single-digit nanomolar range” and the Dmax is 87%. Besides, the DC50 in test [2] (read-out: AURKA DC50) was 7.8 nM.

Turning to `O=C1CCC(N2C(=O)c3cccc(OCCOCCOCCOCCNC(=O)[C@]4(Cc5cccc(Nc6nccs6)n5)CC[C@@H](Oc5cccc(Cl)c5F)CC4)c3C2=O)C(=O)N1` (stereo partly shown) [SK2188, reference compound], the GI50 was 19 nM in test [1] (read-out: Cell GI50 72h, NGP (Figure 4B)); 40 nM in test [1] (read-out: GI50 72h, 72h); 39.8 nM in test [1] (read-out: pGI50 (converted)). In test [3], this compound returned a Ki of 5.61 µM. Moreover, the “AURKA Degradation 24h @100nM” value in test [2] stood at 86. The pDC50 in test [2] was 8,41. This compound registered a Dmax in test [2] (NGP, 24 h treatment) of 89%. Further, in test [2] (read-out: AURKA DC50), the 50% degradation concentration (DC50) stood at 3.9 nM.

For `Cc1cc(Nc2ccc(F)c(CC3(C(=O)N4CCC(CN5CCN(c6ccc(N7CCC(=O)NC7=O)cn6)CC5)CC4)CCN(Cc4cccc(Cl)c4F)CC3)n2)n[nH]1` [SK4454], the GI50 was 35 nM in test [1] (read-out: GI50 72h, 72h) and 34.7 nM in test [1] (read-out: pGI50 (converted)). In test [3], this compound yielded a Ki of 7.64 µM. Further, the “AURKA Degradation 24h @100nM” value in test [2] is 88. The “AURKA Degradation 24h @1000nM” value in test [2] is given as 92. Moreover, the pDC50 in test [2] was 8,09. Also, the “time to robust AURKA depletion” value in test [2] is on record as at most 1 h. In addition, in test [2] (NGP, 24 h treatment), the “AURKA DC50” value was “single-digit nanomolar range”. Also, in test [2] (NGP, 24 h treatment), the maximal degradation (Dmax) was 90%. For the same compound, the DC50 in test [2] (setting [4]) was below 25 nM; in test [2] (SJNB-8, read-out: AURKA DC50 24h), < 25 nM and 23 nM; in test [2] (setting [5]), 270 nM; in test [2] (read-out: AURKA DC50), 8.1 nM. In test [2] (SK-N-BE(2)-C), the “AURKA degradation potency upon cotreatment with tariquidar (in words)” value is “significantly enhanced”.

With `Cc1cc(Nc2ccc(F)c(CC3(C(=O)N4CCC(F)(CN5CCN(c6ccc(N7CCC(=O)NC7=O)cn6)CC5)CC4)CCN(Cc4cccc(Cl)c4F)CC3)n2)n[nH]1` [SK5527], the GI50 in test [1] (read-out: GI50 72h, 72h) was 42 nM; in test [1] (read-out: pGI50 (converted)), 41.7 nM. Moreover, in test [3], the inhibitory constant (Ki) was above 10 µM. Besides, the “AURKA Degradation 24h @100nM” value in test [2] was determined as 88. For the same compound, the “AURKA Degradation 24h @1000nM” value in test [2] was 93. In addition, the pDC50 in test [2] is 8,68. Besides, the DC50 in test [2] (HEK293T, read-out: AURKA DC50 24h) is 17 nM; in test [2] (setting [4]), below 25 nM; in test [2] (RPE, read-out: AURKA DC50 24h) it was 15 nM; in test [2] (SJNB-1, read-out: AURKA DC50 24h), 56 nM; in test [2] (SK-N-AS, read-out: AURKA DC50 24h) it was 30 nM; in test [2] (setting [5]), 73 nM. Besides, the DC50 is 23 nM in test [2] (SK-N-SH, read-out: AURKA DC50 24h) and 2.1 nM in test [2] (read-out: AURKA DC50). The “time to robust AURKA depletion” value in test [2] is at most 1 h. In test [2] (NGP, 24 h treatment), the “AURKA DC50” value is on record as “single-digit nanomolar range”. The compound also showed a Dmax in test [2] (NGP, 24 h treatment) of 89%. Also, the “AURKA degradation potency upon cotreatment with tariquidar (in words)” value in test [2] (SK-N-BE(2)-C) is “significantly enhanced”.
